{"source": "patent US20230070582A1", "about": "“UTILIZATION OF FGF ACTIVATORS IN CULTURE MEDIA” (Yissum Research Development Company of the Hebrew …, priority 2020, published 2023)", "key": {"[1]": {"tested_on": "Bovine fibroblasts adapted to suspension culture", "assay": "Bovine fibroblast cell growth in serum-free suspension culture, cell count on Day 3", "format": "cell-based", "settings": "Day 3 count, FIG. 1", "experimental": "Effects of ID-8 and/or FK-506 (alone or combined) on bovine fibroblast cell growth were evaluated. Bovine fibroblasts adapted to suspension culture were seeded in 0.3 millions/ml in a total volume of 20 ml in cell culture flasks. The flasks were kept in a shaker incubator with 100 rpm, 37° C., and 5% CO2. Cell counts were done on Day 3 using automatic cell counter (Cellaca®) with APOI staining to eliminate the dead cells from the counts."}, "ovine fibroblasts": {"tested_on": "ovine fibroblasts", "assay": "XTT cell proliferation assay, ovine fibroblasts 2D culture, gradient concentrations", "format": "cell-based", "settings": "FIG. 3", "experimental": "The effects of gradient concentration of both small molecules (ID-8 and FK-506) in ranges from about 1-50 μM for ID-8 and about 1-50 nM for FK-506 were tested on ovine fibroblasts 2D culture. Ovine fibroblasts were seeded in 96-well plate at a density of 1000 cells/well. ID-8 and FK-506 in serum free medium were incubated with the fibroblast cells for 48 hours before adding XTT (cell proliferation assay from Biological Industries, Israel) according to company protocol. Colorimetric signal was measured after 8 hours of XTT addition. Blank (medium only) measurements were subtracted from the sample measurements (n=4)."}, "mouse ESCs": {"tested_on": "mouse ESCs", "settings": "serum-free culture; Miyabayashi et al. 2008; cited from earlier work"}, "FGF pathway": {"tested_on": "FGF pathway", "settings": "by activating ERK pathway; zebrafish heart model; Molina et al. 2009; cited from earlier work"}}, "data": [{"molecule": "C=CC[C@@H]1/C=C(\\C)C[C@H](C)C[C@H](OC)[C@H]2O[C@@](O)(C(=O)C(=O)N3CCCC[C@H]3C(=O)O[C@H](/C(C)=C/[C@@H]3CC[C@@H](O)[C@H](OC)C3)[C@H](C)[C@@H](O)CC1=O)[C@H](C)C[C@@H]2OC", "note": "[FK-506, Tacrolimus]", "values": [{"measurement": "effect on bovine fibroblast cell growth as compared to FGF (10 ng/ml)", "setting": "[1]; FK-506 alone 2 nM", "result": "didn't obtain a comparable effect"}, {"measurement": "effect on ovine fibroblast cell growth", "setting": "ovine fibroblasts; higher concentration of FK-506, e.g. 5 nM, 20 nM or 50 nM, with ID-8 at 1 μM", "result": "did not show significant effect on cell growth"}, {"measurement": "concentration of FK-506 giving the best cell growth (optimal concentration)", "setting": "ovine fibroblasts; in combination with ID-8, 48 hours", "result": "1 to 2", "unit": "nM"}]}, {"molecule": "COc1ccc(-n2c(C)c([N+](=O)[O-])c3ccc(O)cc32)cc1", "note": "[ID-8]", "values": [{"measurement": "effect on bovine fibroblast cell growth as compared to FGF (10 ng/ml)", "setting": "[1]; ID-8 alone 1 μM", "result": "comparable effect"}, {"measurement": "ovine fibroblast cell growth versus control (no FGF)", "setting": "ovine fibroblasts; higher concentrations of ID-8, e.g. 10 μM or 50 μM", "result": "more cell growth than the control"}, {"measurement": "concentration of ID-8 giving the best cell growth (optimal concentration)", "setting": "ovine fibroblasts; in combination with FK-506, 48 hours", "result": "1 to 5", "unit": "µM"}, {"measurement": "self-renewal of mouse ESCs", "setting": "mouse ESCs", "result": "support self-renewal"}]}, {"molecule": "Cl.O=C1/C(=C/c2ccccc2)C(NC2CCCCC2)c2ccccc21", "note": "(mixture of isomers) [(E/Z)-BCI hydrochloride]", "values": [{"measurement": "effect on FGF pathway", "setting": "FGF pathway", "result": "hyperactivates FGF pathway"}]}]}
